According to patent US11053204B2, “Pyrimidinyloxy benzene derivatives as herbicides” (FMC Corporation, priority 2015, dated 2021):

Tests used:
Type in all cases: in vivo
[1] = tested on: barnyardgrass (Echinochloa crus-galli); experiment: Test B flooded paddy test, plant response rating; conditions: 250 g ai/ha; Flood; scale of 0 to 100 where 0 is no effect and 100 is complete control; 13 to 15 days
Summary of the method: (§1)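 Ratings were visual and made relative to untreated controls after 13 to 15 greenhouse days.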

rice (Oryza sativa) = experiment: Test B flooded paddy test, plant response rating; conditions: 250 g ai/ha; Flood; scale of 0 to 100 where 0 is no effect and 100 is complete control; 13 to 15 days
Summary of the method: as §1

[2] = tested on: ducksalad (Heteranthera limosa); experiment: Test B flooded paddy test, plant response rating; conditions: 250 g ai/ha; Flood; scale of 0 to 100 where 0 is no effect and 100 is complete control; 13 to 15 days
Summary of the method: as §1

[3] = tested on: sedge, umbrella (small-flower umbrella sedge, Cyperus difformis); experiment: Test B flooded paddy test, plant response rating; conditions: 250 g ai/ha; Flood; scale of 0 to 100 where 0 is no effect and 100 is complete control; 13 to 15 days
Summary of the method: as §1

[4] = tested on: barnyardgrass (Echinochloa crus-galli); experiment: Test C preemergence, plant response rating; conditions: Preemergence
kochia (Kochia scoparia) = experiment: Test A postemergence, visual injury rating
Summary of the method: (§2)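 Visual injury scored 0–100 (100 = complete control) against untreated controls about 10 days after treatment in a greenhouse. Test chemicals, formulated with surfactant in non-phytotoxic solvent, were sprayed on soil preemergence or on 2-10 cm, one- to two-leaf plants postemergence.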

[5] = tested on: blackgrass (Alopecurus myosuroides); experiment: Test A postemergence, visual injury rating
Summary of the method: as §2

[6] = tested on: barnyardgrass (Echinochloa crus-galli); experiment: Test A postemergence, visual injury rating; conditions: 0 to 100 scale, 0 is no effect, 100 is complete control, approximately 10 days
Summary of the method: as §2

[7] = tested on: pigweed (Amaranthus retroflexus); experiment: Test A postemergence, visual injury rating
Summary of the method: as §2

[8] = tested on: galium (catchweed bedstraw, Galium aparine); experiment: Test A postemergence, visual injury rating
Summary of the method: as §2

[9] = tested on: wheat (Triticum aestivum); experiment: Test A postemergence, visual injury rating
Summary of the method: as §2

[10] = tested on: Italian ryegrass (Lolium multiflorum); experiment: Test A postemergence, visual injury rating
Summary of the method: as §2

[11] = tested on: ragweed (common ragweed, Ambrosia elatior); experiment: Test A postemergence, visual injury rating
Summary of the method: as §2

corn (Zea mays) = experiment: Test A postemergence, visual injury rating
Summary of the method: as §2

[12] = tested on: giant foxtail (Setaria faberii); experiment: Test A postemergence, visual injury rating
Summary of the method: as §2

[13] = tested on: waterhemp (common waterhemp, Amaranthus rudis); experiment: Test C postemergence, plant response rating
Summary of the method: (§3)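 Visual injury score, 0 = no effect, 100 = complete control, assigned against untreated controls after 13 to 15 d in the greenhouse. Compounds were applied in a surfactant-containing non-phytotoxic solvent mix, preemergence to seeded loam/sand or silt loam soil, or postemergence to 1- to 4-leaf plants (2 to 18 cm).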

[14] = tested on: galium (catchweed bedstraw, Galium aparine); experiment: Test C postemergence, plant response rating; conditions: for Galium plant response rating: scale 0 to 100 (0 no effect, 100 complete control)
Summary of the method: as §3

[15] = tested on: ragweed (common ragweed, Ambrosia elatior); experiment: Test C postemergence, plant response rating; conditions: for Ragweed plant response rating: scale 0 to 100 (0 no effect, 100 complete control)
Summary of the method: as §3

[16] = tested on: velvetleaf (Abutilon theophrasti); experiment: Test C postemergence, plant response rating
Summary of the method: as §3

[17] = 31 g ai/ha, 0 to 100 scale (0 no effect, 100 complete control)
[18] = 125 g ai/ha, 0 to 100 scale, 0 is no effect, 100 is complete control, approximately 10 days
[19] = 125 g ai/ha, scale 0 to 100 (0 no effect, 100 complete control)

In the case of `N#CC(CCCC(F)(F)F)c1ccccc1Oc1ncc(Cl)cn1` (stereo not shown) [Compound 144], the “Plant response rating, Barnyardgrass” value [1] is reported as 70, the “Plant response rating, Rice” value (rice (Oryza sativa)) is reported as 35 and the “Plant response rating, Ducksalad” value [2] is reported as 100. The “Plant response rating, Sedge, Umbrella” value [3] was 100, the “Plant response rating, Barnyardgrass” value ([4]; 125 g ai/ha, scale of 0 to 100) was 95 and the “Plant response rating, Barnyardgrass” value ([4]; 16 g ai/ha, scale 0 to 100) was 10. For the same molecule, the “Plant response rating, Barnyardgrass” value ([4]; 31 g ai/ha, scale 0 to 100) was 40, the “Plant response rating, Barnyardgrass” value ([4]; 62 g ai/ha, scale 0 to 100) was 70 and the “Kochia plant response rating” value (kochia (Kochia scoparia); [17]) was 90. The “Kochia plant response rating” value (kochia (Kochia scoparia); [18]) was 100, the “Blackgrass plant response rating” value [5, 17] was 50 and the “Blackgrass plant response rating” value [5, 18] was 90. For the same molecule, the “Barnyardgrass plant response rating” value ([6]; 31 g ai/ha) was 40, the “Barnyardgrass plant response rating” value ([6]; 125 g ai/ha) was 90 and the “Pigweed plant response rating” value [7, 17] was 90. The “Pigweed plant response rating” value [7, 18] was 100, the “Galium plant response rating” value [8, 17] was 40 and the “Galium plant response rating” value [8, 18] was 100. For the same molecule, the “Wheat plant response rating” value [9, 17] was 10, the “Wheat plant response rating” value [9, 18] was 60 and the “Ryegrass, Italian plant response rating” value [10, 17] was 30. The “Ryegrass, Italian plant response rating” value [10, 18] was 80, the “Ragweed plant response rating” value [11, 17] was 10 and the “Ragweed plant response rating” value [11, 18] was 10. For the same molecule, the “Corn plant response rating” value (corn (Zea mays); [17]) was 20, the “Corn plant response rating” value (corn (Zea mays); [18]) was 80 and the “Foxtail, Giant plant response rating” value [12, 17] was 60. The “Foxtail, Giant plant response rating” value [12, 18] was 90, the “Plant response rating, Waterhemp” value ([13]; 16 g ai/ha, scale of 0 to 100) was 35 and the “Plant response rating, Waterhemp” value ([13]; 31 g ai/ha, scale 0 to 100) was 60. For the same molecule, the “Waterhemp plant response rating” value [13, 19] was 75, the “Plant response rating, Waterhemp” value ([13]; rate not given, scale 0 to 100) was 75 and the “Plant response rating, Galium” value ([14]; 16 g ai/ha, scale of 0 to 100) was 50. For the same molecule, the “Plant response rating, Galium” value ([14]; 31 g ai/ha, scale 0 to 100) was 70, the “Galium plant response rating” value ([14]; 62 g ai/ha) was 85 and the “Galium plant response rating” value ([14]; 125 g ai/ha) was 90. The “Plant response rating, Ragweed” value ([15]; 16 g ai/ha, scale of 0 to 100) was 10, the “Plant response rating, Ragweed” value ([15]; 31 g ai/ha, scale 0 to 100) was 15 and the “Ragweed plant response rating” value ([15]; 62 g ai/ha) was 25. For the same molecule, the “Ragweed plant response rating” value ([15]; 125 g ai/ha) was 15, the “Plant response rating, Velvetleaf” value ([16]; 16 g ai/ha, scale of 0 to 100) was 25 and the “Plant response rating, Velvetleaf” value ([16]; 31 g ai/ha, scale 0 to 100) was 30. For the same molecule, the “Velvetleaf plant response rating” value [16, 19] was 65.
